Results taken from the NIST ThermoML archive (doi:10.1021/je500050p).
± gives the expanded uncertainty stated by the source.

Assay: activity coefficient (dimensionless); of the first substance listed, at infinite dilution; xn = mol fraction of the nth substance listed
Conditions: 101 kPa, Liquid, Chromatography, x1 = 0

Row | SMILES | activity coefficient (323.15 K) | activity coefficient (353.15 K) | activity coefficient (373.15 K) | activity coefficient (333.15 K) | activity coefficient (343.15 K)
1 | c1ccccc1 [benzene] + CCCCCCCCCCCCCC[N+](CCCCCC)(CCCCCC)CCCCCC.C[C@H](O)C(=O)[O-] | 0.38 ± 0.03 | 0.38 ± 0.03 | 0.39 ± 0.03 | – | –
2 | CCCCO [butan-1-ol] + CC1(C)[C@@H]2CC[C@@]1(CS(=O)(=O)[O-])C(=O)C2.CCCCCCCCCCCCCC[N+](CCCCCC)(CCCCCC)CCCCCC | 0.09 ± 0.03 | – | – | 0.15 ± 0.03 | 0.27 ± 0.03
3 | CCC(C)=O [butanone] + CC1(C)[C@@H]2CC[C@@]1(CS(=O)(=O)[O-])C(=O)C2.CCCCCCCCCCCCCC[N+](CCCCCC)(CCCCCC)CCCCCC | 0.43 ± 0.04 | – | – | 0.57 ± 0.04 | 0.73 ± 0.05
4 | C1CCCCC1 [cyclohexane] + CC1(C)[C@@H]2CC[C@@]1(CS(=O)(=O)[O-])C(=O)C2.CCCCCCCCCCCCCC[N+](CCCCCC)(CCCCCC)CCCCCC | 0.69 ± 0.05 | – | – | 0.95 ± 0.06 | 1.24 ± 0.08
5 | C1CCCCC1 [cyclohexane] + CCCCCCCCCCCCCC[N+](CCCCCC)(CCCCCC)CCCCCC.C[C@H](O)C(=O)[O-] | 0.77 ± 0.05 | 0.73 ± 0.05 | 0.71 ± 0.05 | – | –
6 | CCCCCCCCCC [decane] + CC1(C)[C@@H]2CC[C@@]1(CS(=O)(=O)[O-])C(=O)C2.CCCCCCCCCCCCCC[N+](CCCCCC)(CCCCCC)CCCCCC | 1.52 ± 0.1 | – | – | 2.41 ± 0.16 | 3.63 ± 0.25
7 | CCCCCCCCCC [decane] + CCCCCCCCCCCCCC[N+](CCCCCC)(CCCCCC)CCCCCC.C[C@H](O)C(=O)[O-] | 1.67 ± 0.11 | 1.63 ± 0.11 | 1.59 ± 0.11 | – | –
8 | ClCCl [dichloromethane] + CC1(C)[C@@H]2CC[C@@]1(CS(=O)(=O)[O-])C(=O)C2.CCCCCCCCCCCCCC[N+](CCCCCC)(CCCCCC)CCCCCC | 0.09 ± 0.03 | – | – | 0.15 ± 0.03 | 0.22 ± 0.03
9 | ClCCl [dichloromethane] + CCCCCCCCCCCCCC[N+](CCCCCC)(CCCCCC)CCCCCC.C[C@H](O)C(=O)[O-] | 0.06 | 0.08 ± 0.03 | 0.1 | – | –
10 | CCOCC [diethyl ether] + CC1(C)[C@@H]2CC[C@@]1(CS(=O)(=O)[O-])C(=O)C2.CCCCCCCCCCCCCC[N+](CCCCCC)(CCCCCC)CCCCCC | 0.73 ± 0.05 | – | – | 0.96 ± 0.06 | 1.14 ± 0.07
11 | CCOCC [diethyl ether] + CCCCCCCCCCCCCC[N+](CCCCCC)(CCCCCC)CCCCCC.C[C@H](O)C(=O)[O-] | 0.84 ± 0.05 | 0.79 ± 0.05 | 0.77 ± 0.05 | – | –
12 | CC(C)OC(C)C [diisopropyl ether] + CC1(C)[C@@H]2CC[C@@]1(CS(=O)(=O)[O-])C(=O)C2.CCCCCCCCCCCCCC[N+](CCCCCC)(CCCCCC)CCCCCC | 1 | – | – | 1.39 ± 0.09 | 1.77 ± 0.12
13 | CC(C)OC(C)C [diisopropyl ether] + CCCCCCCCCCCCCC[N+](CCCCCC)(CCCCCC)CCCCCC.C[C@H](O)C(=O)[O-] | 1.13 ± 0.07 | 1.08 ± 0.07 | 1.06 ± 0.07 | – | –
14 | CCCCCCCCCCCC [dodecane] + CC1(C)[C@@H]2CC[C@@]1(CS(=O)(=O)[O-])C(=O)C2.CCCCCCCCCCCCCC[N+](CCCCCC)(CCCCCC)CCCCCC | 1.72 ± 0.12 | – | – | 3.15 ± 0.22 | 5.14 ± 0.35
15 | CCO [ethanol] + CC1(C)[C@@H]2CC[C@@]1(CS(=O)(=O)[O-])C(=O)C2.CCCCCCCCCCCCCC[N+](CCCCCC)(CCCCCC)CCCCCC | 0.1 | – | – | 0.17 ± 0.03 | 0.26 ± 0.03
16 | CCO [ethanol] + CCCCCCCCCCCCCC[N+](CCCCCC)(CCCCCC)CCCCCC.C[C@H](O)C(=O)[O-] | 0.03 | 0.03 | 0.04 | – | –
17 | CCc1ccccc1 [ethylbenzene] + CC1(C)[C@@H]2CC[C@@]1(CS(=O)(=O)[O-])C(=O)C2.CCCCCCCCCCCCCC[N+](CCCCCC)(CCCCCC)CCCCCC | 0.49 ± 0.04 | – | – | 0.76 ± 0.05 | 1.11 ± 0.07
18 | CCc1ccccc1 [ethylbenzene] + CCCCCCCCCCCCCC[N+](CCCCCC)(CCCCCC)CCCCCC.C[C@H](O)C(=O)[O-] | 0.56 ± 0.04 | 0.56 ± 0.04 | 0.57 ± 0.04 | – | –
19 | CCCCCCC [heptane] + CC1(C)[C@@H]2CC[C@@]1(CS(=O)(=O)[O-])C(=O)C2.CCCCCCCCCCCCCC[N+](CCCCCC)(CCCCCC)CCCCCC | 1.14 ± 0.07 | – | – | 1.57 ± 0.1 | 2.14 ± 0.15
20 | CCCCCCC [heptane] + CCCCCCCCCCCCCC[N+](CCCCCC)(CCCCCC)CCCCCC.C[C@H](O)C(=O)[O-] | 1.22 ± 0.08 | 1.17 ± 0.07 | 1.16 ± 0.07 | – | –
